In patent publication US6403604B1, “Nitrogen-based camptothecin derivatives” (California Pacific Medical Center, priority 2001, dated 2002):
Where two headings read alike, the source gives them in different places.

Tests used:
[1] = tested on: HCT116 cells; format: cell-based; settings: 72 hours drug incubation, colonies counted after 7 days
Protocol: This example provides directions for growing cells and testing compounds of the invention for their effect on the growth of the cells.
Cell Colony Formation Assay
Four hundred cells (HCT 116, PC-3) or five hundred cells (VM46) were plated in 60 mm Petri dishes containing 2.7 ml of medium (modified McCoy's 5a medium) containing 10% fetal bovine serum and 100 units/ml penicillin and 100 mg/ml streptomycin. The cells were incubated in a CO2 incubator at 37° C. for 5 hours for attachment to the bottom of Petri dishes. Drugs were made fresh in medium at ten times the final concentration, and then 0.3 ml of this stock solution was added to the 2.7 ml of medium in the dish. The cells were then incubated with drugs for 72 hours at 37° C. At the end of the incubation the drug-containing media were decanted, the dishes were rinsed with 4 ml of Hank's Balance Salt Solution (HBSS), 5 ml of fresh medium was added, and the dishes were returned to the incubator for colony formation.
Values of ID50 (the drug concentration producing 50% inhibition of colony 5 formation) may be determined for each tested compound.

[2] = tested on: C3H/HeJ mice; test: in vivo
Protocol: (§1) This example provides directions for performing in vivo toxicity tests of the compounds of the invention on C3H/HeJ mice.
(§2) Acute toxicities of the compounds of this invention are evaluated on C3H/HeJ mice (body weight 18-22 g). The MTD40 (maximum tolerated dose at day 40) values are determined by the standard procedure described by Gad and Chengelis (see, for example, “Acute Toxicology Testing,” 2nd Ed., Shayne O. Gad and Christopher P. Chengelis, pp. 186-195 (Academic Press).) In the consecutive type studies, 2 mice are dosed at low and moderate doses of 40 and 100 mg/kg. If no severe and irreversible toxicity (euthanasia is required) occurs at these doses, a new pair of animals is initiated at 180 mg/kg, which is 1.8 times higher than 100 mg/kg. Sequential dosages (about 3 doses on 3 pairs of animals, i.e. 2 mice for each drug dose) are increased by a factor of 1.8 until severe and irreversible toxicity (euthanasia is required) occurred. Then another pair of animals is initiated at the highest nonlethal dosage, and successive dosages were increased by a factor of 1.15. The result of this exercise is two dosages, one apparently nonlethal and the other lethal if severe and irreversible toxicity occurs and euthanasia is required, separated by a factor of 1.15. Six mice are dosed at each dosage. If no severe and irreversible toxicity occurs at the lower dosage and at least one with severe and irreversible toxicity occurs at the higher dose, then the lower dose is considered to be the MTD. The compounds of this invention are administered to C3H/HeJ mice by intraperitoneal injection. Drug toxicity is evaluated on mice checked daily for 45 days. The toxicity parameters reported will be the MTD40.

[3] = in vivo; settings: C3H/HeJ, mouse, in vivo, ip
Protocol: as §1, §2

[4] = cited from earlier work
[5] = tested on: mouse leukemia L1210 system; settings: cited from earlier work
[6] = maximum tolerated dose, C3H/HeJ mice, intraperitoneal injection

Structure (SMILES)	Survival (%) of HCT116 ([1]; 10 nM)	Survival (%) of HCT116 ([1]; 100 nM)	MTD [2, 6]	Survival (%) of HCT116 ([1]; 1 nM)	MTD ([2]; mouse, in vivo, ip)	MTD at 45 days [3]	solubility in water [4]	antitumor activity [5]
CC[C@@]1(OC(=O)CCN2C(=O)c3ccccc3C2=O)C(=O)OCc2c1cc1n(c2=O)Cc2cc3ccccc3nc2-1 [000503 (1), Camptothecin-20S-Ester of 3-Phthalimidopropionic Acid]	95.24%	0%	150 mg/kg					
CC[C@@]1(OC(=O)CCN2CCN(c3cccc(C(F)(F)F)c3)CC2)C(=O)OCc2c1cc1n(c2=O)Cc2cc3ccccc3nc2-1 [001101 (6), Camptothecin-20S-ester of 3-[4-(3-trifluoromethylphenyl)-1-piperazinyl]-propionic acid]	0%	0%	150 mg/kg	100%				
CC[C@@]1(OC(=O)CCN2C(=O)c3cccc4c([N+](=O)[O-])ccc(c34)C2=O)C(=O)OCc2c1cc1n(c2=O)Cc2cc3ccccc3nc2-1 [001128 (4), Camptothecin-20S-Ester of 3-(4-Nitro-1,8-Naphthalimide)propionic Acid]					150 mg/kg			
CC[C@@]1(OC(=O)CCN2CCN(c3cccc(OC)c3)CC2)C(=O)OCc2c1cc1n(c2=O)Cc2cc3ccccc3nc2-1 [001129 (8), Camptothecin-20S-ester of 3-[4-(3-methoxyphenyl)-1-piperazinyl]propionic Acid]	0%	0%	150 mg/kg	73.26%				
CC[C@@]1(OC(=O)CCN2CCN(Cc3ccccc3)CC2)C(=O)OCc2c1cc1n(c2=O)Cc2cc3ccccc3nc2-1 [001204 (7), Camptothecin-20s-ester of 3-[(4-benzyl)-1-piperazinyl]propionic Acid]	0%	0%		64.04%				
CCC1(OC(=O)CCN2C(=O)C=CC2=O)C(=O)OCc2c1cc1n(c2=O)Cc2cc3ccccc3nc2-1 (stereo not drawn) [010104 (2), Camptothecin-20S-Ester of 3-Maleimidopropionic Acid]	95.54%	0%						
CC[C@@]1(OC(=O)CCN2CCN(c3ccc([N+](=O)[O-])cc3)CC2)C(=O)OCc2c1cc1n(c2=O)Cc2cc3ccccc3nc2-1 [010105 (9), Camptothecin-20S-ester of 3-[4-(4-nitrophenyl)-1-piperazinyl]propionic Acid]	0%	0%		94.14%				
CC[C@@]1(OC(=O)CCN2CCN(c3ccccc3Cl)CC2)C(=O)OCc2c1cc1n(c2=O)Cc2cc3ccccc3nc2-1 [010117 (11), Camptothecin-20S-ester of 3-[4-(2-chlorophenyl)-1-piperazinyl]propionic Acid]	0%	0%		100%				
CC[C@@]1(OC(=O)CCN2CCN(c3ccc(F)cc3)CC2)C(=O)OCc2c1cc1n(c2=O)Cc2cc3ccccc3nc2-1 [010124 (12), Camptothecin-20S-ester of 3-[4-(4-fluorophenyl)-1-piperazinyl]propionic Acid]	0%	0%		100%				
CC[C@@]1(O)C(=O)OCc2c1cc1n(c2=O)Cc2cc3ccccc3nc2-1 [Camptothecin, (S)-4-ethyl-4-hydroxy-1H-pyrano-[3′,4′:6,7]indolizinol[1,2-b]quinoline-3,14(4H, 12H)-dione]	73.72%	0%				12 mg/kg	essentially insoluble	antitumor activity
CCc1c2c(nc3ccc(OC(=O)N4CCC(N5CCCCC5)CC4)cc13)-c1cc3c(c(=O)n1C2)COC(=O)[C@]3(O)CC [Irinotecan, 7-ethyl-10[4-(1-piperidino)-1-piperidino]carbonyloxy CPT, reference compound]		90.52%						
